The source of these data is US20250136559A1, “SMO MODULATOR COMPOUNDS” (OMASS THERAPEUTICS LIMITED, priority 2022, published 2025).

Common to all, as to assay type: cell-based
One test addresses T1, mouse SMO^WT (Mus musculus, UniProt P56726).
T1 construct: expressed in transfected cells
The test is described as follows: Mouse assay: Gli1 qPCR in MEF cells stably expressing mouse SMO WT. The conditions noted are these: mSHh-treated, 24 hours; for IC50: Gli1 inhibition by qPCR, read-out: Mouse WT pIC50 (converted); for Mouse WT % Inh: percentage Gli1 inhibition. As for the experimental part:
(§1) Cell culture. All materials were purchased from Sigma-Aldrich, unless otherwise stated.
(§2) Compound treatment. […] After 1 hour incubation, cells were treated with assay medium containing mSHh prepared at 2.5× of final assay concentrations specified in the text and incubated for a further 24 hours at 37′C in a humidified 95% air/5% CO2 atmosphere prior to qPCR analysis.
(§3) Cell lysis and one-step qPCR. The Cells-to-CT™ 1-Step TaqMan® Kit was used in conjunction with TaqMan primer-probe assays for the detection of Gli1 (FAM, Mm00494654_m1) and Gusb (VIC, Mm01197698_m1) genes (all purchased from Life Technologies). Following 24 hours cell treatment, spent medium was removed and cells were washed with PBS before the application of lysis and stop solution as per manufacturer's instructions. The qPCR reactions were run in a 384-well PCR plate using master mix prepared according to manufacturer's instructions and cell lysate samples from treatment wells. Real-time PCR amplification was detected using the Bio-Rad CFX384 Touch PCR system. Four experimental replicates (two cell replicates and two qPCR replicates) were performed for each compound concentration tested. Real-time data were analysed using the CFX Maestro software (Bio-Rad) and obtained expression values were converted to percentage Gli1 inhibition by normalising to the average Gli1 expression of mSHh-treated control samples.
(In general: Real-time PCR tracks product formation cycle by cycle.)

In a further test the target is T2, mouse SMO^D473H (Mus musculus, UniProt P56726, D477H).
T2 construct: expressed in transfected cells
Put plainly: Mouse assay: Gli1 qPCR in MEF cells stably expressing mouse SMO D473H. As to conditions: mSHh-treated, 24 hours; for IC50: Gli1 inhibition by qPCR, read-out: Mouse D473H pIC50 (converted); for Mouse D473H % Inh: percentage Gli1 inhibition. The protocol:
as §1, §2, §3

For the next test, the target named is T3, mouse SMO^W535L (Mus musculus, UniProt P56726, W539L).
T3 construct: expressed in transfected cells
The test is described as follows: Mouse assay: Gli1 qPCR in MEF cells stably expressing mouse SMO W535L. As to conditions: mSHh-treated, 24 hours; for IC50: Gli1 inhibition by qPCR, read-out: Mouse W535L pIC50 (converted); for Mouse W535L % Inh: percentage Gli1 inhibition. The protocol:
as §1, §2, §3

T3 sequence (P56726 33-793 W539L): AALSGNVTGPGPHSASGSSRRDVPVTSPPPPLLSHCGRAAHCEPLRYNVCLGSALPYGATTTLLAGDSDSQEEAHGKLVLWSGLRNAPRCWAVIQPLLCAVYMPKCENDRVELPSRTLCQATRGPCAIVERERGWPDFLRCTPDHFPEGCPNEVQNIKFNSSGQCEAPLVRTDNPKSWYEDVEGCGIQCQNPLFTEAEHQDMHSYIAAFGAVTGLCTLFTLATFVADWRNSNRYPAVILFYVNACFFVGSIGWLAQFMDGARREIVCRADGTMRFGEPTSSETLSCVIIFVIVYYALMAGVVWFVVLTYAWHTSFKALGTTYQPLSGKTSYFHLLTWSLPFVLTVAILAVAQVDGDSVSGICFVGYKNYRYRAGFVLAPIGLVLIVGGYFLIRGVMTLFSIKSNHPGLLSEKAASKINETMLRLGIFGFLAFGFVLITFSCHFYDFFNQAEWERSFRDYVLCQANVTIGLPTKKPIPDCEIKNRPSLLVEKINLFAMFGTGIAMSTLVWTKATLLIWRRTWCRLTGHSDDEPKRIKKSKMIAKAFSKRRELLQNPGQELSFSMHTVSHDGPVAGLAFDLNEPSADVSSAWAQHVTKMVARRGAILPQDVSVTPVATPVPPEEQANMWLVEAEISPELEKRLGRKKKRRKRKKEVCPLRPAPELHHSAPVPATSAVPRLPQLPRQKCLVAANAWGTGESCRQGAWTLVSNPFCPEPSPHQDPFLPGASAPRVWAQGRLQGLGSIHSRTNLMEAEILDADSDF
T2 sequence (P56726 33-793 D477H): as the sequence (P56726 33-793 W539L) above, with D445H, L507W counted along it
T1 sequence (P56726 33-793): as the sequence (P56726 33-793 W539L) above, with L507W counted along it

For the molecule `Cn1nc(-c2ccc(NC(=O)c3ccc(Cl)c(CN4CCS(=O)(=O)CC4)c3)cc2)cc1C1CC1` [Example 4-24, 4-Chloro-N-[4-(5-cyclopropyl-1-methylpyrazol-3-yl)phenyl]-3-[(1,1-dioxo-1,4-thiazinan-4-yl)methyl]benzamide], on mouse SMO^WT, the IC50 was 0.631 nM and the “Mouse WT % Inh” value came to 97.9%. At mouse SMO^D473H, the IC50 is 7.94 nM and the “Mouse D473H % Inh” value is listed as 98.1%. Besides, on mouse SMO^W535L, the IC50 is 10 nM and the “Mouse W535L % Inh” value was found to be 70.0%.

Turning to `Cc1cc(Cc2n[nH]c(-c3ccc(NC(=O)c4cccc(CN5CCS(=O)(=O)CC5)c4)cc3)n2)ccc1Br` [Example 3-27, N-[4-[5-[(4-Bromo-3-methylphenyl)methyl]-1H-1,2,4-triazol-3-yl]phenyl]-3-[(1,1-dioxo-1,4-thiazinan-4-yl)methyl]benzamide], at mouse SMO^WT, the IC50 is 15.8 nM and the “Mouse WT % Inh” value came to 99.3%. Besides, on mouse SMO^D473H, the IC50 was 631 nM and the “Mouse D473H % Inh” value stood at 97.0%. For the same molecule, at mouse SMO^W535L, the IC50 is 158 nM and the “Mouse W535L % Inh” value was 57.3%.

`O=C(Nc1ccc(-c2nc(-c3ccc(COc4ccccc4F)cc3)n[nH]2)cc1)c1cccc(CN2CCS(=O)(=O)CC2)c1` [Example 3-14, 3-[(1,1-Dioxo-1,4-thiazinan-4-yl)methy]-N-[4-[3-[4-[(2-fluorophenoxy)methyl]phenyl]-1H-1,2,4-triazol-5-yl]phenyl]benzamide]: at mouse SMO^WT, the IC50 is 39.8 nM and the “Mouse WT % Inh” value was 97.3%. On mouse SMO^D473H, the IC50 is 251 nM and the “Mouse D473H % Inh” value came to 95.2%. In addition, on mouse SMO^W535L, the IC50 was 631 nM and the “Mouse W535L % Inh” value came to 50.9%.

Take `Cc1oc(-c2ccc(NC(=O)c3ccc(Cl)c(CN4CCS(=O)(=O)CC4)c3)cc2)nc1C1CC1` [Example 4-4, 4-Chloro-N-[4-(4-cyclopropyl-5-methyl-1,3-oxazol-2-yl)phenyl]-3-[(1,1-dioxo-1,4-thiazinan-4-yl)methyl]benzamide]: on mouse SMO^WT, the IC50 was 0.2 nM and the “Mouse WT % Inh” value worked out at 99.5%. On mouse SMO^D473H, the IC50 was 3.16 nM and the “Mouse D473H % Inh” value is 98.5%. For the same molecule, on mouse SMO^W535L, the IC50 was 12.6 nM and the “Mouse W535L % Inh” value amounted to 79.0%.

As to `O=C(Nc1ccc(-c2nc(Cc3ccccc3F)n[nH]2)cc1)c1cccc(CN2CCS(=O)(=O)CC2)c1` [Example 3-19, 3-[(1,1-Dioxo-1,4-thiazinan-4-yl)methy]-N-[4-[3-[(2-fluorophenyl)methyl]-1H-1,2,4-triazol-5-yl]phenyl]benzamide], at mouse SMO^WT, the IC50 was 25.1 nM and the “Mouse WT % Inh” value is 99.1%. Further, at mouse SMO^D473H, the IC50 was 316 nM and the “Mouse D473H % Inh” value is given as 96.9%. On mouse SMO^W535L, the IC50 is 39.8 nM and the “Mouse W535L % Inh” value came out at 64.3%.

For the molecule `O=C(Nc1ccc(-c2nc(CCc3ccccc3)n[nH]2)cc1)c1cccc(CN2CCS(=O)(=O)CC2)c1` [Example 3-31, 3-[(1,1-Dioxo-1,4-thiazinan-4-yl)methyl]-N-[4-[3-(2-phenylethyl)-1H-1,2,4-triazol-5-yl]phenyl]benzamide], on mouse SMO^WT, the IC50 was 31.6 nM and the “Mouse WT % Inh” value came out at 98.6%. Besides, at mouse SMO^D473H, the IC50 was 251 nM and the “Mouse D473H % Inh” value stood at 97.2%. For the same molecule, on mouse SMO^W535L, the IC50 was 79.4 nM and the “Mouse W535L % Inh” value is reported as 64.1%.

Regarding `O=C(Nc1ccc(-c2noc(Cc3ccc(Cl)cc3)n2)cc1)c1cccc(CN2CCS(=O)(=O)CC2)c1` [Example 4-18, N-[4-[5-[(4-Chlorophenyl)methyl]-1,2,4-oxadiazol-3-yl]phenyl]-3-[(1,1-dioxo-1,4-thiazinan-4-yl)methyl]benzamide], on mouse SMO^WT, the IC50 is 2.51 nM and the “Mouse WT % Inh” value is given as 98.7%. On mouse SMO^D473H, the IC50 was 15.8 nM and the “Mouse D473H % Inh” value stood at 99.2%. On mouse SMO^W535L, the IC50 was 39.8 nM and the “Mouse W535L % Inh” value is on record as 82.7%.

In the case of `Cl.O=C(Nc1ccc(-c2noc(C3CC3)n2)cc1)c1cccc(CN2CCS(=O)(=O)CC2)c1` [Example 4-12, N-[4-(5-Cyclopropyl-1,2,4-oxadiazol-3-yl)phenyl]-3-[(1,1-dioxo-1,4-thiazinan-4-yl)methyl]benzamide], on mouse SMO^WT, the IC50 is 10 nM and the “Mouse WT % Inh” value was found to be 99.6%. On mouse SMO^D473H, the IC50 was 39.8 nM and the “Mouse D473H % Inh” value is reported as 99.8%. For the same molecule, on mouse SMO^W535L, the IC50 is 158 nM and the “Mouse W535L % Inh” value is reported as 57.8%.

For the molecule `O=C(Nc1ccc(-c2nc(C3CC3)n[nH]2)cc1)c1cc(CN2CCS(=O)(=O)CC2)ccc1F` [Example 2-1, N-[4-(5-Cyclopropyl-1H-1,2,4-triazol-3-yl)phenyl]-5-[(1,1-dioxo-1,4-thiazinan-4-yl)methyl]-2-fluorobenzamide], at mouse SMO^WT, the IC50 is 15.8 nM and the “Mouse WT % Inh” value is 96.5%. Besides, at mouse SMO^D473H, the IC50 is 200 nM and the “Mouse D473H % Inh” value is 95.3%. On mouse SMO^W535L, the IC50 is 79.4 nM and the “Mouse W535L % Inh” value was found to be 68.2%.

In the case of `O=C(Nc1ccc(-c2nc(-c3ccccn3)n[nH]2)cc1)c1cccc(CN2CCS(=O)(=O)CC2)c1` [Example 3-15, 3-[(1,1-Dioxo-1,4-thiazinan-4-yl)methyl]-N-[4-(3-pyridin-2-yl-1H-1,2,4-triazol-5-yl)phenyl]benzamide], on mouse SMO^WT, the IC50 was 79.4 nM and the “Mouse WT % Inh” value amounted to 98.9%. In addition, on mouse SMO^D473H, the IC50 was 1000 nM and the “Mouse D473H % Inh” value stood at 97.0%. Besides, on mouse SMO^W535L, the IC50 was 398 nM and the “Mouse W535L % Inh” value was 53.4%.

Consider `Cc1c(-c2ccc(NC(=O)c3cccc(CN4CCS(=O)(=O)CC4)c3)cc2)nn(C)c1C1CC1` [Example 4-25, N-[4-(5-Cyclopropyl-1,4-dimethylpyrazol-3-yl)phenyl]-3-[(1,1-dioxo-1,4-thiazinan-4-yl)methyl]benzamide], for which, at mouse SMO^WT, the IC50 is 0.398 nM and the “Mouse WT % Inh” value worked out at 98.3%. At mouse SMO^D473H, the IC50 is 5.01 nM and the “Mouse D473H % Inh” value is listed as 98.6%. Besides, on mouse SMO^W535L, the IC50 was 15.8 nM and the “Mouse W535L % Inh” value was found to be 65.7%.

For `COc1ccc(Cc2n[nH]c(-c3ccc(NC(=O)c4cccc(CN5CCS(=O)(=O)CC5)c4)cc3)n2)cn1` [Example 3-30, 3-[(1,1-Dioxo-1,4-thiazinan-4-yl)methyl]-N-[4-[5-[(6-methoxypyridin-3-yl)methyl]-1H-1,2,4-triazol-3-yl]phenyl]benzamide], at mouse SMO^WT, the IC50 was 79.4 nM and the “Mouse WT % Inh” value is on record as 99.0%. Moreover, at mouse SMO^D473H, the IC50 is 631 nM and the “Mouse D473H % Inh” value was 98.4%. Besides, at mouse SMO^W535L, the IC50 was 501 nM and the “Mouse W535L % Inh” value stood at 69.1%.

For `Cn1nc(-c2ccc(NC(=O)c3cccc(CN4CCS(=O)(=O)CC4)c3)nc2)cc1C1CC1` [Example 5-5, N-[5-(5-cyclopropyl-1-methylpyrazol-3-yl)pyridin-2-yl]-3-[(1,1-dioxo-1,4-thiazinan-4-yl)methyl]benzamide], on mouse SMO^WT, the IC50 is 31.6 nM and the “Mouse WT % Inh” value was 97.7%. At mouse SMO^D473H, the IC50 is 100 nM and the “Mouse D473H % Inh” value was determined as 93.2%. For the same molecule, at mouse SMO^W535L, the IC50 is 631 nM and the “Mouse W535L % Inh” value was 61.1%.

Consider `CN(C)c1nnc(-c2ccc(NC(=O)c3cccc(CN4CCS(=O)(=O)CC4)c3)cc2)o1` [Example 4-9, N-[4-[5-(Dimethylamino)-1,3,4-oxadiazol-2-yl]phenyl]-3-[(1,1-dioxo-1,4-thiazinan-4-yl)methyl]benzamide], for which, at mouse SMO^WT, the IC50 is 39.8 nM and the “Mouse WT % Inh” value is listed as 99.6%. Also, at mouse SMO^D473H, the IC50 is 316 nM and the “Mouse D473H % Inh” value is 99.1%. Further, at mouse SMO^W535L, the IC50 was 794 nM and the “Mouse W535L % Inh” value was found to be 70.0%.

For `O=C(Nc1ccc(-c2nc(-c3cccc(Cl)c3)n[nH]2)cc1)c1cccc(CN2CCS(=O)(=O)CC2)c1` [Example 3-11, N-[4-[3-(3-Chlorophenyl)-1H-1,2,4-triazol-5-yl]phenyl]-3-[(1,1-dioxo-1,4-thiazinan-4-yl)methyl]benzamide], on mouse SMO^WT, the IC50 is 10 nM and the “Mouse WT % Inh” value amounted to 98.4%. For the same molecule, at mouse SMO^D473H, the IC50 was 100 nM and the “Mouse D473H % Inh” value is recorded as 98.5%. Moreover, on mouse SMO^W535L, the IC50 was 501 nM and the “Mouse W535L % Inh” value came to 62.5%.

For `O=C(Nc1ccc(-c2noc(C3CCC3)n2)cc1)c1cccc(CN2CCS(=O)(=O)CC2)c1` [Example 4-13, N-[4-(5-Cyclobutyl-1,2,4-oxadiazol-3-yl)phenyl]-3-[(1,1-dioxo-1,4-thiazinan-4-yl)methyl]benzamide], on mouse SMO^WT, the IC50 is 50.1 nM and the “Mouse WT % Inh” value was found to be 98.8%. On mouse SMO^D473H, the IC50 is 316 nM and the “Mouse D473H % Inh” value is 99.0%. Also, at mouse SMO^W535L, the IC50 is 501 nM and the “Mouse W535L % Inh” value was found to be 77.4%.
